What all share (type): cell-based, human
One assay has as its system lung cancer A549 cells. Nature of the assay: MTT antiproliferation assay, A549. The conditions noted are these: means ± SD, n = 3. The text has this:
(§1) The target hybrids A1–A15 were screened for their antiproliferation activities against five human cancer cell lines (lung cancer A549 cells, breast cancer MCF-7 and MDA-MB-231 cells, colon cancer HCT116 cells and ovarian cancer SK-OV-3 cells) in vitro by the standard MTT method, and 5-fluorouracil (5-FU) and ART were coassayed as controls. […] Therefore, the most promising hybrid, A8, was chosen for further exploration of the preliminary mechanism of MCF-7 cell antiproliferation.
(§2) Cytotoxicity of test compounds against five different tumor cell lines were evaluated using an MTT assay in vitro. Cells were seeded into 96-well plates at a density of 5 × 10^4 cells per well and stabilized at 37 °C with 5% CO2 for 24 h. Compounds A1–A15, ART and 5-FU were added to each well at various concentrations and then the cells were incubated for 48 h. The MTT solution (100 μL 0.5 mg/mL^−1) was added to each well, and the cells were incubated for another 4 h. Then, 150 μL DMSO was added to each well and the absorbance of samples was measured at 492 nm. The IC50 values were calculated according to Logit method after getting the inhibitory rate.

Assay [1] deals with breast cancer MCF-7 cells. Nature of the assay: MTT antiproliferation assay, MCF-7. The conditions noted are these: means ± SD, n = 3.
Excerpt: as §1, §2
A general note: Tetrazolium dyes change colour on reduction, which living cells bring about.

Assay [2] deals with colon cancer HCT116 cells. Nature of the assay: MTT antiproliferation assay, HCT116. The conditions noted are these: means ± SD, n = 3.
Excerpt: as §1, §2

Assay [3] relates to ovarian cancer SK-OV-3 cells. Nature of the assay: MTT antiproliferation assay, SK-OV-3. The conditions noted are these: means ± SD, n = 3.
Excerpt: as §1, §2

In assay [4] the test system is breast cancer MDA-MB-231 cells. Nature of the assay: MTT antiproliferation assay, MDA-MB-231. As to conditions: means ± SD, n = 3.
Excerpt: as §1, §2

A further assay concerns MCF-7 cells. Nature of the assay: Lipid peroxidation (MDA) detection. The conditions noted are these: MCF-7, added to A8 treatment. The text has this: We also determined the effect of A8 on the expression of GSH and MDA (lipid peroxidation).
Lipid peroxidation assay kit (Beyotime, Shanghai, China) was used to detect malonaldehyde (MDA), together with GSH level assay, present in samples, as per the manufacturer’s instruction with slight modifications.

A further assay deals with GPX4. Nature of the assay: Western blotting, GPX4 expression. The conditions noted are these: MCF-7, added to A8 treatment. The protocol: We examined the effect of A8 on the expression of GPX4 as well, which is vital in preventing ferroptosis. […] Thus, we concluded that A8 induced the accumulation of ROS and lipid peroxidation and suppressed GSH levels and the expression of GPX4, thereby leading to the induction of ferroptosis.
MCF-7 cells were seeded at a density of 4 × 10^5 cells per well and treated with various concentrations of compound A8 (0, 2.5, 5 and 10 μM) for 48 h. After this, cells were collected and washed twice with ice-cold DPBS. The pellets were resuspended in a total protein extraction buffer (20 mM HEPES, 350 mM NaCl, 20% glycerol, 1% NP-40, 1 mM MgCl2, 0.5 mM EDTA, 0.1 mM EGTA, 0.1 mM DTT, 0.1 mM PMSF) containing a protease inhibitor cocktail and incubated on ice for 30 min with intermittent mixing. The protein concentration was measured using the Bradford reagent (Bio-Rad Laboratories Inc., Hercules, CA, USA). An equal amount (20 μg) of protein was loaded on 10% polyacrylamide gels and transferred to a nitrocellulose membrane. After blocking with 5% skimmed milk, the membrane was incubated at 4 °C overnight with specific primary antibodies. The membrane was washed and incubated at room temperature for 1 h with secondary antibodies conjugated with horseradish peroxidase (HRP). Finally, the immunoblot was developed for visualization using a chemiluminescence kit. […]

The structures appear in SMILES notation. Where only a bound is given, the exact number is not on record here.

One may read the IC50 as the concentration needed to halve the response being measured. Regarding `CC1CCC2C(C)C(OC(=O)CCC(=O)NCc3nnc(Nc4c(F)cccc4F)o3)OC3OC4(C)CCC1C32OO4` (centres unmarked) [A4], the IC50 (in the assay with lung cancer A549 cells (48 h); in assay [1] (48 h); in assay [2] (48 h); in assay [3] (48 h); in assay [4] (48 h)) was greater than 30 µM each time.
Take `CCOC(=O)c1ccc(NC2CCCCC2)c(N)c1` [Fer-1, ferrostatin-1, reference compound]: in the assay with MCF-7 cells, the “effect on A8-induced lipid peroxide accumulation (in words)” value is “reversed lipid peroxide accumulation”. The “effect on A8-suppressed GPX4 expression (in words)” value with GPX4 is reported as “restored the expression of GPX4”.
Take `CC1CCC2C(C)C(OC(=O)CCC(=O)NCc3nnc(Nc4ccc(Cl)cc4)o3)OC3OC4(C)CCC1C32OO4` (centres unmarked) [A6]: the IC50 (with lung cancer A549 cells (48 h); in assay [1] (48 h); in assay [2] (48 h); in assay [3] (48 h); in assay [4] (48 h)) was greater than 30 µM in each case.
For `CC1CCC2C(C)C(OC(=O)CCC(=O)NCc3nnc(Nc4ccccc4F)o3)OC3OC4(C)CCC1C32OO4` (centres unmarked) [A9], the IC50 was greater than 30 µM in the assay with lung cancer A549 cells (48 h); 8.89 ± 0.39 µM in assay [1] (48 h); greater than 30 µM in assay [2] (48 h); greater than 30 µM in assay [3] (48 h); greater than 30 µM in assay [4] (48 h).
Turning to `CC1CCC2C(C)C(OC(=O)CCC(=O)NCc3nnc(Nc4cc(Br)ccc4Br)o3)OC3OC4(C)CCC1C32OO4` (centres unmarked) [A7], the IC50 (with lung cancer A549 cells (48 h); in assay [1] (48 h); in assay [2] (48 h); in assay [3] (48 h); in assay [4] (48 h)) was greater than 30 µM throughout.
For the compound `C[C@@H]1CC[C@H]2[C@@H](C)C(=O)O[C@@H]3O[C@@]4(C)CC[C@@H]1[C@]32OO4` [ART, Artemisinin], the IC50 in the assay with lung cancer A549 cells (Homo sapiens, A549, 48 h) is 27.2 ± 0.67 µM; in assay [1] (Homo sapiens, MCF7, 48 h), greater than 30 µM; in assay [2] (Homo sapiens, HCT-116, 48 h), greater than 30 µM; in assay [3] (Homo sapiens, SK-OV-3, 48 h), greater than 30 µM; in assay [4] (Homo sapiens, MDA-MB-231, 48 h) it was greater than 30 µM.
Turning to `O=c1[nH]cc(F)c(=O)[nH]1` [5FU, 5-fluorouracil, reference compound], the IC50 with lung cancer A549 cells (Homo sapiens, A549, 48 h) was greater than 30 µM; in assay [1] (Homo sapiens, MCF7, 48 h), 26.1 ± 0.87 µM; in assay [2] (Homo sapiens, HCT-116, 48 h), 18.4 ± 1.14 µM; in assay [3] (Homo sapiens, SK-OV-3, 48 h), greater than 30 µM; in assay [4] (Homo sapiens, MDA-MB-231, 48 h), 27.7 ± 1.23 µM.
Consider `Cc1ccc(Nc2nnc(CNC(=O)CCC(=O)OC3OC4OC5(C)CCC6C(C)CCC(C3C)C46OO5)o2)c(C)c1` (centres unmarked) [A15], for which the IC50 (in the assay on lung cancer A549 cells (48 h); in assay [1] (48 h); in assay [2] (48 h); in assay [3] (48 h); in assay [4] (48 h)) was greater than 30 µM throughout.
`CC1CCC2C(C)C(OC(=O)CCC(=O)NCc3nnc(Nc4ccc(C(F)(F)F)cc4)o3)OC3OC4(C)CCC1C32OO4` (centres unmarked) [A5]: the IC50 (in the assay on lung cancer A549 cells (48 h); in assay [1] (48 h); in assay [2] (48 h); in assay [3] (48 h); in assay [4] (48 h)) was greater than 30 µM in each case.
As for `CCOc1ccccc1Nc1nnc(CNC(=O)CCC(=O)OC2OC3OC4(C)CCC5C(C)CCC(C2C)C35OO4)o1` (centres unmarked) [A3], the IC50 was greater than 30 µM in the assay with lung cancer A549 cells (48 h); 6.82 ± 0.25 µM in assay [1] (48 h); greater than 30 µM in assay [2] (48 h); greater than 30 µM in assay [3] (48 h); greater than 30 µM in assay [4] (48 h).
For `CC1CCC2C(C)C(OC(=O)CCC(=O)NCc3nnc(Nc4ccc(Br)cc4)o3)OC3OC4(C)CCC1C32OO4` (centres unmarked) [A11], the IC50 (in the assay on lung cancer A549 cells (48 h); in assay [1] (48 h); in assay [2] (48 h); in assay [3] (48 h); in assay [4] (48 h)) was greater than 30 µM throughout.
On to `COc1ccc(Nc2nnc(CNC(=O)CCC(=O)OC3OC4OC5(C)CCC6C(C)CCC(C3C)C46OO5)o2)cc1` (centres unmarked) [A14], for which the IC50 with lung cancer A549 cells (48 h) was greater than 30 µM; in assay [1] (48 h), 6.86 ± 0.73 µM; in assay [2] (48 h), greater than 30 µM; in assay [3] (48 h) it was greater than 30 µM; in assay [4] (48 h) it was 19.4 ± 0.91 µM.
For the compound `CC1CCC2C(C)C(OC(=O)CCC(=O)NCc3nnc(Nc4ccc(C(C)(C)C)cc4)o3)OC3OC4(C)CCC1C32OO4` (centres unmarked) [A10], the half-inhibitory concentration (IC50) with lung cancer A549 cells (48 h) was greater than 30 µM; in assay [1] (48 h), 11.1 ± 1.28 µM; in assay [2] (48 h), greater than 30 µM; in assay [3] (48 h) it was greater than 30 µM; in assay [4] (48 h) it was greater than 30 µM.
As to `Cc1cc(C)cc(Nc2nnc(CNC(=O)CCC(=O)OC3OC4OC5(C)CCC6C(C)CCC(C3C)C46OO5)o2)c1` (centres unmarked) [A13], the IC50 in the assay with lung cancer A549 cells (48 h) was greater than 30 µM; in assay [1] (48 h), 9.72 ± 0.11 µM; in assay [2] (48 h), greater than 30 µM; in assay [3] (48 h) it was greater than 30 µM; in assay [4] (48 h), greater than 30 µM.
With `CC1CCC2C(C)C(OC(=O)CCC(=O)NCc3nnc(Nc4ccc(OC(F)(F)F)cc4)o3)OC3OC4(C)CCC1C32OO4` (centres unmarked) [A1], the IC50 with lung cancer A549 cells (48 h) was greater than 30 µM; in assay [1] (48 h) it was 5.2 ± 1.38 µM; in assay [2] (48 h), greater than 30 µM; in assay [3] (48 h), greater than 30 µM; in assay [4] (48 h), greater than 30 µM.
As to `Cc1ccc(Nc2nnc(CNC(=O)CCC(=O)OC3OC4OC5(C)CCC6C(C)CCC(C3C)C46OO5)o2)cc1` (centres unmarked) [A2], the concentration for half-maximal inhibition (IC50) is greater than 30 µM with lung cancer A549 cells (48 h); 4.26 ± 0.17 µM in assay [1] (48 h); 14.8 ± 1.77 µM in assay [2] (48 h); greater than 30 µM in assay [3] (48 h); 4.89 ± 1.58 µM in assay [4] (48 h).

(Values after paper PMC9779727, “Identification of Novel Artemisinin Hybrids Induce Apoptosis and Ferroptosis in MCF-7 Cells” (International Journal of Molecular Sciences, 2022).)
